# Experiments:
# [1] = system: patients with moderate to severe non-proliferative diabetic retinopathy; test: Phase 2 48-week trial: IOP after subcutaneous Compound 1 QD or BID, non-proliferative diabetic retinopathy; format: in vivo, human; details: for mean reduction in IOP compared to placebo: MMRM ANCOVA; for Week 12 IOP change from BL, mean (SD) / Week 12 IOP, mean (SD) / Week 36 IOP change from BL, mean (SD) / Week 36 IOP, mean (SD) / Week 48 IOP change from BL, mean (SD) / Week 48 IOP, mean (SD) / Week 24 IOP change from BL, mean (SD) / Week 24 IOP, mean (SD): averaged over both eyes; for Week 24 IOP change from BL, mean (SD) / Week 24 IOP, mean (SD): measured predose
# Source text: Eligible subjects were aged 18 to 80 years with moderate to severe NPDR. The major inclusion criteria for the qualified eyes included Early Treatment Diabetic Retinopathy Study (ETDRS) Severity Score≥43 and ≤53, no evidence of central involved diabetic macular edema (DME) and ETDRS≥70 letters using the ETDRS visual acuity charts. Study eye ocular exclusion criteria included uncontrolled glaucoma defined as IOP≥30 mm Hg on maximum IOP reduction therapy. Subjects were randomized 1:1:1 to either Compound 1, 15 mg once daily (QD), Compound 1, 15 mg twice daily (BID), or placebo BID treatment groups. Subjects self-administered the masked study medication (Compound 1 or placebo) supplied as sterile pre-filled single-use syringes. Subjects visited the clinical site monthly during the 48-week treatment period. A battery of comprehensive ophthalmic evaluations including IOP assessments were conducted every 12-weeks with either applanation tonometry or Tono-Pen® and the methodology was consistent throughout the study. On Day 1 and Week 24, IOP was measured prior to dosing. IOP data were analyzed using a mixed-model repeated measures ANCOVA, with visit as the repeated measure within subject. The model included change from baseline as the dependent variable. The p-value from the model was adjusted by baseline IOP. 167 patients with moderate to severe non-proliferative diabetic retinopathy (NPDR) without diabetic macular edema (DME) and a visual acuity of 20/40 or better were enrolled in a 48-week study of the effect of Compound 1 (sodium salt) in the treatment of NPDR. The IOP was measured at baseline, and at weeks 12, 24, 36, and 48. The trial consisted of three study arms: 1) patients receiving 15 mg of Compound 1 subcutaneously BID; 2) patients receiving placebo subcutaneously QD, and 15 mg of Compound 1 subcutaneously QD; and 3) patients receiving a placebo subcutaneously BID.
# [2] = system: ocular normotensive New Zealand White rabbits; test: IOP in ocular normotensive rabbits, topical ocular or subcutaneous Compound 1; format: in vivo, rabbit
# Protocol: To examine the effect of Compound 1 on IOP, Compound 1 was delivered either by subcutaneous injection, or by topical drops to ocular normotensive New Zealand White rabbits, and IOP was followed over time (FIGS. 3A-3C). For this study, 25 female New Zealand White rabbits were administered the sodium salt of Compound 1 for seven days QD or BID topically (30 μL drop) into both eyes, or twice daily subcutaneously, or vehicle twice daily topically into both eyes. Eye drops (4% Compound 1 or vehicle) were administered, with study staff masked to treatment. Five dose groups (5 rabbits per group) were tested: 1) vehicle control—15% HPβCD (+1% dextrose); 2) 1.5% (15 mg/mL) Compound 1 BID; 3) 4% (40 mg/mL) Compound 1 BID; 4) 4% (40 mg/mL) Compound 1 QD; and 5) 10 mg/kg (40 mg/mL) Compound 1 administered subcutaneously BID. IOP measurements were performed at baseline (prior to the start of dosing), and once daily on days 2-8. Prior to performing IOP measurements, 1 to 2 drops of a 0.5% proparacaine solution were applied to the eye as a topical anesthetic. IOP measurements were performed with a pneumotonometer 2 hours after morning dosing. The only exceptions were Day 8 measurements, which were performed 24 hours after the final dose. IOP data were analyzed using a mixed-design two-factor ANOVA, with time as the within-subjects factor and treatment as the between-subjects factor. IOP values for Day 7 and Day 8 were analyzed using one-way ANOVA. The change from baseline IOP on Day 7 and on Day 8 was calculated for each animal, and the resulting values were analyzed using one-way ANOVA. Area under the curve (AUC) was calculated for all morning IOP measurements throughout the study for each group; AUC values for the different groups were analyzed using one-way ANOVA. Where appropriate, post hoc testing was performed using Tukey's multiple comparisons tests. The level of significance was set at 0.05.
# mouse eyes = test: Outflow facility in enucleated mouse eyes (iPerfusion); format: in vivo
# Protocol: An iPerfusion system was used to measure outflow facility in mice. The system is designed to measure outflow facility in paired mouse eyes having low flow rates (nL/min). Outflow facility is a measure of the ability of aqueous humor to flow from the trabecular meshwork to maintain a steady state TOP.
# After three days of treatment with either Compound 1 or placebo, eyes were enucleated, and outflow facility was measured in a masked fashion. Briefly, mice were euthanized using isoflurane and freshly enucleated, paired mouse eyes were mounted on two stabilization platforms in temperature-controlled perfusion chambers by using a small amount of cyanoacrylate glue. […]
# Both eyes of the mice were perfused at 9 mmHg for 45-60 min to allow acclimatization and to deliver the drug or vehicle to the outflow pathway, followed by 9 sequential pressure steps of 4.5, 6, 7.5, 9, 10.5, 12, 15, 18, and 21 mmHg. The outflow from the eye was measured at multiple pressures to calculate the outflow facility.
# A non-linear flow-pressure model was used to account for the pressure dependence of outflow facility in mice. The reference facility was analyzed at a reference pressure of 8 mmHg, which approximates the physiological pressure drop across the conventional outflow pathway in living mice. […]
# [3] = system: New Zealand White rabbits; test: Local tolerance in rabbits (slit lamp biomicroscopy, McDonald-Shadduck scoring); format: in vivo, rabbit; details: slit lamp biomicroscopy during the study
# [4] = 10 mg/kg BID subcutaneous injection
structure (smiles),measurement,setting,value
"COC(=O)N[C@@H](Cc1ccccc1)C(=O)N[C@@H](Cc1ccc(NS(=O)(=O)O)cc1)c1csc(-c2cccs2)n1 [Compound 1, 4-{(S)-2-[(S)-2-(Methoxycarbonylamino)-3-phenylpropanamido]-2-[2-(thiophen-2-yl)thiazol-4-yl]ethyl}phenylsulfamic acid]",mean reduction in IOP compared to placebo,[1]; 15 mg SC BID,1.15 mmHg
same,"Week 12 IOP change from BL, mean (SD)",[1]; 15 mg SC BID,−0.91 (3.20) mmHg
same,"Week 12 IOP, mean (SD)",[1]; 15 mg SC BID,14.6 (2.93) mmHg
same,"Week 36 IOP change from BL, mean (SD)",[1]; 15 mg SC BID,−1.48 (3.48) mmHg
same,"Week 36 IOP, mean (SD)",[1]; 15 mg SC BID,14.0 (2.74) mmHg
same,"Week 48 IOP change from BL, mean (SD)",[1]; 15 mg SC BID,−0.94 (3.00) mmHg
same,"Week 48 IOP, mean (SD)",[1]; 15 mg SC BID,14.6 (2.73) mmHg
same,"Week 24 IOP change from BL, mean (SD)",[1]; 15 mg SC BID,−1.27 (3.31) mmHg
same,"Week 24 IOP, mean (SD)",[1]; 15 mg SC BID,14.2 (2.60) mmHg
same,mean reduction in IOP compared to placebo,[1]; 15 mg SC QD,0.70 mmHg
same,"Week 12 IOP change from BL, mean (SD)",[1]; 15 mg SC QD,−0.56 (2.83) mmHg
same,"Week 12 IOP, mean (SD)",[1]; 15 mg SC QD,15.3 (2.75) mmHg
same,"Week 36 IOP change from BL, mean (SD)",[1]; 15 mg SC QD,−0.94 (3.39) mmHg
same,"Week 36 IOP, mean (SD)",[1]; 15 mg SC QD,14.9 (3.58) mmHg
same,"Week 48 IOP change from BL, mean (SD)",[1]; 15 mg SC QD,−0.72 (2.80) mmHg
same,"Week 48 IOP, mean (SD)",[1]; 15 mg SC QD,15.2 (2.84) mmHg
same,"Week 24 IOP change from BL, mean (SD)",[1]; 15 mg SC QD,−0.56 (2.99) mmHg
same,"Week 24 IOP, mean (SD)",[1]; 15 mg SC QD,15.3 (2.90) mmHg
same,IOP-lowering effect on the last day of dosing (Day 7),[2]; [4],the effect did not persist
same,IOP-lowering effect relative to vehicle control on Days 3 and 4,[2]; [4],significant maximum IOP-lowering effect
same,"area under the curve for IOP values over 7 days versus vehicle, 1.5% TO BID or 10 mg/kg SC BID",[2]; 4% topical ocular QD or BID,statistically-significantly lower
same,time to steady-state effect on IOP,[2]; daily topical ocular dosing of 4.0%,steady-state effect on IOP was observed by Day 3
same,"IOP reduction, topical ocular versus subcutaneous administration",[2]; rabbits,larger with topical ocular administration than with subcutaneous administration
same,IOP-lowering effect versus vehicle control or 1.5% Compound 1 BID,"[2]; topical ocular 4% QD and BID, 7 days",significantly larger IOP-lowering effect
same,"IOP on Day 8, 24 hours after the last dose",[2]; two high-dose (4%) topical ocular groups,significant reduction in IOP persisted on Day 8
same,outflow facility,"mouse eyes; eyes dosed three days QD with 4% Compound 1, perfused with 10 μM, reference pressure 8 mmHg",3.4±0.4 nL/min/mmHg
same,increase of outflow facility compared to control,mouse eyes; versus placebo-treated contralateral eyes,33%
same,adverse effects on local tolerance,[3],No adverse effects
